Results reported in article PMC8597046, “Use of Mixture Dosing and Nonlinear Mixed Effect Modeling of Eight Environmental Contaminants in Rabbits to Improve Extrapolation Value of Toxicokinetic Data” (Environmental Health Perspectives, 2021).

Tests used:
[1] = Chronic exposure: daily oral mixture for 17 wk, steady-state serum concentrations; settings: female, New Zealand white (INRA 1777 line), rabbit, in vivo, po
Experimental: The objective of this preliminary experiment was to check the ability of our approach to determine the loading and maintenance doses of the eight compounds to be administered simultaneously by oral route to reproduce in female rabbits targeted serum concentrations. The experiment was carried out on thirty-two 2-wk old female New Zealand white rabbits (INRA 1777 line) randomly allocated to a treatment and control groups of 16 rabbits weighing 309±45g and 298±62g , respectively. The treated rabbits were orally administrated a mixture of the eight compounds at a dosage corresponding to the sum of the loading and daily maintenance doses followed by daily administrations of the maintenance dose for 17 wk (see the “Estimation of the doses” section). The control group was orally administrated the vehicle for the same duration.
The volume of the maintenance dosing solution ( 1mL/kg ) was weekly adjusted to the mean BW estimated from the known pattern of growth of the INRA 1777 rabbit line. Oral dosing and antemortem blood sampling were performed as previously described.
Blood samples were left to clot for about 20–30 min at ambient temperature and centrifuged for 20 min at 3,000×g at 25°C. The separated serum was stored in glass tubes at −20°C until assayed.

[2] = Nonlinear mixed effect (NLME) compartmental modeling of merged IV and oral serum concentrations
From the text: A nonlinear mixed effect (NLME) modeling approach was used to analyze simultaneously all data obtained from the different rabbits after both IV and oral administrations and to provide robust estimates of the typical TK parameters.
The primary parameters of the model, namely the volume of distribution of the central compartment (V1), the first-order rate constants ( K10 , K12 , K21 , and Kabs plus K13 , K31 for PFOA) and the bioavailability (F) and their associated precisions [standard error (SE)] were estimated by minimizing an objective function value (OFV) expressed as minus twice the log of the likelihood estimation ( −2LL ). […] Marginal likelihood was approximated by using the Laplacian engine by default and, when this engine was unable to determine the SE of the estimate, the Quasi-Random Parametric Expectation Maximization (QRPEM) was selected.
Between subject variability (BSV) of the parameters was measured using the exponential model θparameter_i=θtv_parameter×exp (ηi), where θparameter_i is the parameter estimated for the ith individual, θtv_parameter is the typical population value of the parameter, and ηi is the deviation associated with the ith individual from the corresponding value of the parameter at the population level.
The distribution of ηi was assumed to be normal with a mean of 0 and a variance ω² . BSV was reported as a coefficient of variation (CV) in the original scale CV(%)=100× exp (ω^2)−1 .
The residual variance was modeled using a combined additive and proportional error model Cobsij=Cpredij(1 + ε1ij) + ε2ij, where Cobsij and Cpredij are respectively the jth observed and predicted concentrations for the ith individual, and ε1ij and ε2ij are the multiplicative and additive residual errors.
Secondary parameters were calculated from the population primary parameters.
The clearance values (CL) were estimated using Equation 5: (5) CL=K10×V1, where V1 is the volume of the central compartment and K10 is the elimination rate constant from the central compartment.
The volume of the peripheral compartment (V2) was estimated with Equation 6: (6) V2=V1×(K12/K21), where K12 and K21 are the distribution rate constants between the central and the peripheral compartments.
The clearance of distribution (Q) was estimated using Equation 7: (7) Q=K12×V1, with […] and K12 as defined above.
The volume of distribution associated with the terminal phase was estimated with Equation 10: (10) VZ=CL/λZ, with λZ as defined above.
The AUC was computed as a secondary parameter using Equation 11: (11) AUC=Dose/CL.
The terminal half-life was estimated with Equation 1, as previously described.

[3] = Estimation of loading and daily maintenance doses and NLME model simulations; parameters: species or system female rabbits; settings: oral
Experimental: The ultimate goal of this TK investigation was to compute a dosage regimen that allowed targeted steady-state serum concentrations to be attained rapidly for a planned TK/TD trial on the reprotoxic effect of a mixture of environmental contaminants in female rabbits. […] With that in mind, the loading and the daily maintenance doses of each compound were evaluated using Equations 12 and 13, respectively.
This risk was also the reason why the NLME model was employed to simulate the time development of the amounts of compounds in the central and peripheral compartments following administration of the daily maintenance dose of each compound over the same duration.
The loading and maintenance doses computed to ensure a nominal CSS of 1 ng/mL were scaled to determine the doses to be administrated by oral route to female rabbits to maintain the targeted CSS .

[4] = female, New Zealand white, rabbit, in vivo
[5] = population primary parameter, typical value, mean

`Cl[C@H]1[C@H](Cl)[C@@H](Cl)[C@H](Cl)[C@@H](Cl)[C@@H]1Cl` [β-HCH, β-hexachlorocyclohexane] showed a concentration at 17 wk [1] of 4.3 ± 1.6 ng/mL, a Vd ([2]; female, New Zealand white (INRA 1777 line), rabbit, in vivo) of 33 L/kg and a bioavailability ([2]; female, New Zealand white (INRA 1777 line), rabbit, in vivo, po, Oral bioavailability (F), NLME model) greater than 85%. For the same molecule, the k el ([2]; female, New Zealand white (INRA 1777 line), rabbit, serum, other: intravenous and oral data merged) was 4.69e-06 s⁻¹, the MRT [2, 4] was 15.8 days and the half-life [2, 4] was 13.2 days. For the same molecule, the clearance ([2]; female, New Zealand white, rabbit, in vivo, Clearance, population secondary parameter, mean) was 1.45 mL/min/kg, the AUC ([2]; female, New Zealand white, rabbit, in vivo, iv) was 20 µM·h and the AUC ([2]; female, New Zealand white, rabbit, in vivo, po) was 87 µM·h. For the same molecule, the bioavailability ([2]; female, New Zealand white, rabbit, in vivo, po, Bioavailability, population secondary parameter, mean, as fraction) was 88%, the AUCVO/dose ([2]; oral dosing) was 12.5 μmol×h/L per μmol/kg BW and the “tvK12 (distribution rate constant)” value [2, 5] was 0.0593 h⁻¹. The “tvK21 (distribution rate constant)” value [2, 5] was 0.0110 h⁻¹, the “tvVc (volume of the central compartment)” value [2, 5] was 5.1310 L/kg and the “tvKabs (rate constant of absorption)” value ([2]; population primary parameter, typical value, mean, MEHP after oral DEHP) was 0.0955 h⁻¹. The “Volume(s) of the peripheral compartment” value ([2]; population secondary parameter, mean, for PFOA first peripheral compartment) was 28 L/kg, the Computed maintenance dose ([3]; daily, scaled to the targeted CSS of Table 6) was 11 µg/kg and the Computed loading dose ([3]; scaled to the targeted CSS of Table 6) was 163 µg/kg. The Daily maintenance dose ([3]; to maintain serum concentration of 1 ng/mL, daily CL×Css/F, DEHP dose for MEHP in serum) was 2.4 µg/kg and the Loading dose ([3]; to rapidly attain serum concentration of 1 ng/mL, Vss×Css/F, DEHP dose for MEHP in serum) was 37 µg/kg.
